Measured values: US20240377321A1, “HOLOGRAPHIC IMAGE PROCESSING AND DATA EXTRACTION” (Accelerate Diagnostics, Inc., priority 2023, published 2024)

Test system: Klebsiella oxytoca (CDCJI 380)
Test: holographic monitoring of cellular growth of Klebsiella oxytoca incubated with antibiotic
Type: cell-based
Conditions: 0.5 mg/mL Meropenem, about eight hours incubation
Procedure: FIGS. 18A-18E depict a sequence of photographs A-E of a sample volume 18, with FIG. 18A depicting the earliest photograph, and FIG. 18E depicting the latest photograph. The photographs A-E show cellular growth of Klebsiella oxytoca (CDCJI 380), which was incubated with 0.5 mg/mL of the antibiotic Meropenem over a period of about eight hours. The photographs A-E provide an example of a complex response of microorganisms to an antibiotic. A holograph 32 of the sample volume 18 was captured every ten minutes during the incubation period. FIG. 19 depicts a graph including a plot 170 of a cellular growth indicator (e.g., the holographic intensity variance) extracted from the full holograph 32, and a plot 172 of the cellular growth indicator extracted from the set of pixels comprising tile six of the holograph 32. The times corresponding to the photographs A-E of FIGS. 18A-18E are indicted by correspondingly labeled arrows in the graph of FIG. 19. […] The slight rise in the cellular growth indicator after seven hours is the earliest indication of a potential resurgence of cell growth, e.g., due to the microorganism becoming resistant.
The divergence of tile plot 172 from the full-holograph plot 170 begins at about the three and half hour mark. This is due to the response of the microorganism to the antibiotic in the localized region of the sample volume corresponding to tile six. This region of the sample volume contains a subpopulation of bacterial cells that appear to have become resistant to the antibiotic, and have begun to grow in colony clusters. This example of delayed resistance to an antibiotic is clinically relevant, and recognizing the resistance early in a test can lead to timely administration of the correct antibiotic at the right dose to treat the patient. From an algorithmic perspective, systematically dividing holographs into portions (e.g., tiles) and calculating the cellular growth indicator for each portion can be used to identify events or hot spots in the growth or death of microorganisms.

C[C@@H](O)[C@H]1C(=O)N2C(C(=O)O)=C(S[C@@H]3CN[C@H](C(=O)N(C)C)C3)[C@H](C)[C@H]12 [Meropenem]
cellular growth indicator (e.g., holographic intensity variance) over time, full holograph (full-holograph plot 170): decreases after three and a half hours of incubation, followed by a slight increase after seven hours of incubation
response of microorganism to antibiotic based on full-holograph plot (holograph every ten minutes, full-holograph plot 170): appears to be sensitive to the dose of antibiotic
cellular growth indicator over time, tile six of the holograph (tile plot 172 (tile six)): resurgent growth due to emerging antibiotic resistance at about four and a half hours
